Where no end group is shown, it is not given here.
Experiments:
[1] = Motor activity (actigraph) after Hcrt-1 injection; type: in vivo
Description: FIG. 1. Acute changes in motor activity after Hcrt-1 administration. (a) A representative actigraph record (5 minute bins) showing the activity level during the 2 hr period following Hcrt-1 (3 μg/kg) and normal saline. Hcrt-1 produced an increase in motor activity within 5 minutes of injection that persisted for 60 minutes. […] In (b) values are mean±SE, *p<0.05; **p<0.01, Newman-Keuls test.
The motor or muscular activity level of the individual can be measured by a variety of means. Motor activity levels may be directly observed and measured by clinicians, or the individual may themselves measure their activity level which typically includes body movement or locomotion. The monitoring can include maintaining a log of activity, including intensity and duration of the activity. An actigraph device, or activity monitor, may be used. An actigraph detects activity by sensing motion via an internal accelerometer. It is a small lightweight instrument that can be worn, for example, on the wrist, waist, or ankle to record physical activity. Actigraphs are often used to estimate energy expenditure or to study motion in an individual, as described in Example 4 and shown in FIG. 1.
The differences in amplitude of motor activity following hypocretin and saline injection diminished over the following 60 minutes (FIGS. 1a, 1b).

[2] = Hypocretin via jugular catheter/osmotic minipump: running wheel activity and body weight; type: in vivo, rats; conditions: about 0.03 to about 600 μg/kg/day, vs control and untreated animals
Description: The effect of administration of hypocretin-1 or other agonists of the hypocretin receptors on rats is investigated. The study includes ten animals in the experimental group, ten animals in the control group, and ten animals in the untreated group. […] Animals in the experimental and control groups receive a jugular catheter implant attached to an osmotic minipump. The experimental group receives hypocretin-1 or other agonist at dosing regimes of about 0.03 μg/kg/day to about 600 μg/kg/day. The control group receives diluent. Animals in all groups are provided with a running wheel and customary rat chow is available ad libitum. Each animal is weighed daily (or another sign of excess body weight is measured), and the running wheel activity for each animal is recorded.

[3] = Hypocretin via ventricular injection (osmotic minipump): running wheel activity and body weight; type: in vivo, rat; conditions: third ventricle minipump, about 0.03 to about 600 μg/kg/day, vs control and untreated animals
Description: The effect of hypocretin administration on the body weight of a normal rat or other rodent is investigated. The study includes ten animals in the experimental group, ten animals in the control group, and ten animals in the untreated group. […] Animals in the experimental and control groups are fitted with an Alzet Model 2004 osmotic minipump (Alza). The minipump delivers solution to the third ventricle of the brain, adjacent to the hypothalamus, for a one to six month period. The experimental group receives hypocretin peptide continuously at dosing regimes of about 0.03 μg/kg/day to about 600 μg/kg/day. The control group receives diluent. Animals in all groups are provided with a running wheel and customary rat chow is available ad libitum. Each animal is weighed daily (or another sign of excess body weight is measured), and the running wheel activity for each animal is recorded.

[4] = Activity of hypocretin in obese humans: wrist actigraph and body weight; type: in vivo; conditions: about 0.03 to about 600 μg/kg/day for four weeks, vs placebo control group
Description: Hypocretin or hypocretin agonist is submitted to safety testing following usual Food and Drug Administration (FDA) requirements. Afterward, the effect of administration of hypocretin or hypocretin agonist on obese humans is investigated. The study includes ten humans in the experimental group and ten humans in the control group. Humans in the experimental and control groups receive administration by intranasal inhalant, or by transdermal or other means. The experimental group receives hypocretin or hypocretin agonist at dosing regimes of about 0.03 μg/kg/day to about 600 μg/kg/day for a period of four weeks. The control group receives a placebo. Activity levels of the humans in both groups are measured with a wrist actigraph, and each human is weighed daily (or another sign of excess body weight is measured).
Each animal is weighed daily, and the running wheel activity for each animal is recorded.

Hcrt-1 antiserum = experiment: Solid-phase radioimmunoassay (RIA) for Hcrt-1; type: binding; conditions: competition with 125I-labeled Hcrt-1 for immobilized antiserum
Description: FIG. 2. The protocol for a sequential multiple antigen radioimmunoassay for hypocretin-1 (Hcrt-1) and hypocretin-2 (Hcrt-2). Sample or standard is loaded into wells onto which antiserum for Hcrt-1 has been pre-adsorbed via protein-A Subsequently, radiolabeled Hcrt-1 (Hcrt-1*) is added to the wells. Competition for the antiserum then ensues between Hcrt-1 and Hcrt-1*. The contents of the wells are then transferred to new wells onto which antiserum for Hcrt-2 has been preadsorbed and the procedure repeated but with radiolabeled Hcrt-2 (Hcrt-2*). The previous wells are washed and counted for bound radioactivity. […]
Furthermore, sensitivity is increased over that obtained with more traditional methods using identical antibodies and assay volumes. […] For example, the individual wells of a 96-well plate containing Ab-bound tracer peptide are then physically separated and counted in a gamma counter. […]
The Hcrt-1, iodinated Hcrt-1, and Hcrt-1 antiserum were obtained from Phoenix Pharmaceuticals, Inc. (530 Harbor Blvd, Belmont, Calif.). […] This enables direct reading of radioactivity in a Top Count plate reader (Packard) without the requirement to separate out individual wells. […]
Prior to RIA, Hcrt-1 is extracted from the CSF or plasma sample. […] The eluant is then dried down and re-suspended in RIA buffer ready for assay. […]

[5] = Hcrt-1 3 μg/kg vs normal saline, actigraph record

IC50 value for this Hcrt-1 assay (Hcrt-1 antiserum) [fmol]	Substance	motor activity ([1]; first 30 minutes after injection, vs saline injection)	running wheel activity [2]	weight gain [2]	running wheel activity [3]	weight gain [3]	activity levels (wrist actigraph) [4]	weight loss [4]	increase of motor activity as compared to saline control ([1]; 0-30 and 30-60 minutes after administration, Newman-Keuls test)	onset of increase in motor activity after injection [1, 5] [min]	persistence of increase in motor activity [1, 5] [min]
	hypocretin	increased motor activity	increased running wheel activity	decreased weight gain	increased running wheel activity	decreased weight gain	increased activity levels	greater weight loss			
2	hypocretin-1 (QPLPDCCRQKTCSCRLYELLHGAGNHAAGILTL; ends and bridges not checked; cysteine pairing not given here; UniProt O43612 34-66, looked up) [Hcrt-1, hypocretin neuropeptide derived from prepro-hypocretin; human orexin-A is reported as a 33 residue peptide of 3562 Da]								statistically significant	≤ 5	60

Source: patent publication US7662780B2, “Administering hypocretin to obese individuals” (The Regents of the University of California, priority 2003, dated 2010)
